According to patent publication US12383556B2, “Methods of treating Sjögren's syndrome using a Bruton's tyrosine kinase inhibitor” (NOVARTIS AG, priority 2019, dated 2025):

What was measured:
[1] = Safety and tolerability in healthy volunteers (first-in-human study); format: in vivo; settings: for overall safety assessment: dosing up to 600 mg (200 mg twice daily)
Method: Standard safety monitoring was used throughout all study parts. A dedicated assessment of potential skin bruising events were included. All vital signs, physical examination and subject history, ECGs, adverse events, and laboratory safety parameters (blood chemistry, hematology and urinalysis) up to 96 hours post last dose as well as PK data from the previous dose group (if available) up to 48 hours post last dose were to be reviewed in a blinded fashion for each cohort before dose escalation. Summary safety reports of reported adverse events, clinical safety laboratory parameters, QTc and heart rate were provided after completion of each dose level.
For the analysis of adverse effects, the Placebo subjects from all SAD and MAD cohorts (2 per cohort) and separated by the SAD and MAD parts were pooled into one Placebo group (n=20 for SAD and n=16 for MAD) to be compared with each single compound (I) dose group (n=6 each) and the total compound (I) group (n=60 for SAD and n=48 for MAD). There were no apparent major differences in the demographic data between placebo and the active groups both for the SAD and MAD populations.

BTK = target: T1, BTK (Homo sapiens, UniProt Q06187); assay: BTK occupancy in human whole blood (free and total BTK ELISA, MSD); format: in vivo
T1 construct: from tissue; host or cells: human whole blood (peripheral blood of dosed volunteers)
T1 sequence (Q06187 whole entry): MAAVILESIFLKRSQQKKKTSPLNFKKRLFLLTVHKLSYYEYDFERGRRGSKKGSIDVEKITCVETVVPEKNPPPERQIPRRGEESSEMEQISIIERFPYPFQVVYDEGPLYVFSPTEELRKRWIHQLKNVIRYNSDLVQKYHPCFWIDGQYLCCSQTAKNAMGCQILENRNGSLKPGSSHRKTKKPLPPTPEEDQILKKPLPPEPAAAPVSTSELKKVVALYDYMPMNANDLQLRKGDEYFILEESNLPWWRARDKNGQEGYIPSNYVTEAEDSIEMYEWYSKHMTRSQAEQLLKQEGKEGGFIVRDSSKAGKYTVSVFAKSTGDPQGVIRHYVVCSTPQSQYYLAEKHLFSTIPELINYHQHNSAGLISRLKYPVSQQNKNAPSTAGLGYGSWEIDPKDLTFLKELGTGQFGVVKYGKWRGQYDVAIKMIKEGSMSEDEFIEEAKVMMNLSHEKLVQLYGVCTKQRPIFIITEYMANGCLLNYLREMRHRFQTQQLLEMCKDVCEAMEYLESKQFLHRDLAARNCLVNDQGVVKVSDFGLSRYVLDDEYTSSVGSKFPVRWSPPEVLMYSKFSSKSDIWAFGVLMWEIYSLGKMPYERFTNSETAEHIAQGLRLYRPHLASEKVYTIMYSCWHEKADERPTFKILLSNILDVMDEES
Method: Pharmacodynamics (PD) was characterized by assessing target occupancy and distal pathway inhibition. Measurements of BTK occupancy in human whole blood (derived as ratio of free and total BTK), served as direct marker of therapeutic target engagement.
Compound of formula (I) is an irreversible inhibitor of BTK, the extent and duration of BTK occupancy were determined.
The relationship between dose and pharmacodynamics was characterized by measurements of BTK occupancy in human blood (derived as ratio of free and total BTK), a direct marker of therapeutic target engagement. BTK occupancy was determined for single ascending doses ranging 0.5 to 400 mg, for q.d. multiple ascending doses ranging from of 10 mg and 400 mg, and for b.i.d. multiple ascending doses of 100 mg and 200 mg.

[2] = after single dose, peripheral blood

- BTK occupancy in blood (BTK; 10 mg q.d.): nearly complete
- through BTK occupancy in blood (BTK; 10 mg q.d., pre-dose at day 12): > 96%
- median BTK turnover T1/2 (BTK; [2]): about 48 hours
- time to refresh BTK protein pool to pre-dose levels (BTK; [2]): about 10 days
- duration of BTK occupancy in blood (BTK; in vivo): > 24 h
- time of peak target occupancy post dose (BTK; peripheral blood): 0.5 h
- BTK occupancy at 24 h (BTK; single doses of 15 mg and above): above 80%
- peak target (BTK) occupancy (BTK; single doses of 15 mg and above, nearly all subjects): ~100%
- duration of sustained BTK occupancy (BTK; single doses of 30 mg and higher): > 24 h
- BTK occupancy (near-complete) (BTK; single doses of 30 mg and higher, all subjects): > 90%
Structure (SMILES): C=CC(=O)N(C)CCOc1c(N)ncnc1-c1cc(F)cc(NC(=O)c2ccc(C3CC3)cc2F)c1C [Compound of Formula (I), N-(3-(6-Amino-5-(2-(N-methylacrylamido)ethoxy)pyrimidin-4-yl)-5-fluoro-2-methylphenyl)-4-cyclopropyl-2-fluorobenzamide]
- serious or severe adverse events related to intake ([1]; 0.5 mg to 600 mg, healthy volunteers): no serious or severe adverse event
- tolerability ([1]; 0.5 mg to 600 mg, single dose or up to 18 days once or twice daily): well tolerated
- overall safety assessment [1]: proven to be safe
- overall safety assessment ([1]; listed as compound (I)): does not reveal significant safety concerns
- nature of observed adverse events ([1]; healthy volunteers): generally mild in nature
